Values of other authors in patent US8901111B2, “Aryl-substituted heterocyclic urea modulators of fatty acid amide hydrolase” (Janssen Pharmaceutica NV, priority 2009, dated 2014).

Legend:
spasticity = conditions: Baker 2001; cited from earlier work
thermal nociception [1] = conditions: rats; WO 04/033652; cited from earlier work
thermal nociception [2] = conditions: cited from earlier work
FAAH = target: T1, FAAH (Homo sapiens, UniProt O00519); conditions: reported; cited from earlier work
T1 sequence (O00519 1-579): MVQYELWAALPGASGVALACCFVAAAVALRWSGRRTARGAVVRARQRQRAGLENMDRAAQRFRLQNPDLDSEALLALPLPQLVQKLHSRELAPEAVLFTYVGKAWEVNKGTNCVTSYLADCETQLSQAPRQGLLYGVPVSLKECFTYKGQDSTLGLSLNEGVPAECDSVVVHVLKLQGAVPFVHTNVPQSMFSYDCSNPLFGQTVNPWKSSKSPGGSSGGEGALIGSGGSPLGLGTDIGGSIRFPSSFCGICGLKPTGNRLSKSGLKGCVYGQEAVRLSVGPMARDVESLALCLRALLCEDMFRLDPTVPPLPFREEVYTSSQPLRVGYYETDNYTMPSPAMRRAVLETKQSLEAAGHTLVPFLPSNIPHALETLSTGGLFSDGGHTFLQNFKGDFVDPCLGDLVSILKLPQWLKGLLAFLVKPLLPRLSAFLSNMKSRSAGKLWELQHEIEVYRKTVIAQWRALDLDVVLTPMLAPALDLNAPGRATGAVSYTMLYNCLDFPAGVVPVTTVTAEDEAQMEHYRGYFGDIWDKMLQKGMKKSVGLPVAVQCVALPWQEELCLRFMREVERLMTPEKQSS

[3] = Kathuria 2003; cited from earlier work
anxiety = conditions: rats; Kathuria 2003; cited from earlier work
[4] = test system: acute thermal nociception; conditions: rats; WO 02/087569; cited from earlier work
neuropathic pain = conditions: rats; WO 02/087569; cited from earlier work

Compound: CCCCCCCCCCCCCCCCS(=O)(=O)F [AM374]
- spasticity in CREAE mice (spasticity): significantly reduce spasticity

Compound: O=C(CCCCCCc1ccccc1)c1ncc(-c2ccccn2)o1 [OL-135]
- analgesic activity in tail emersion test (thermal nociception [1]): analgesic activity
- analgesic activity in hot plate test (thermal nociception [2]; rats, WO 04/033652): analgesic activity
- inhibition of FAAH (FAAH): potent inhibitor

Compound: NC(=O)c1cccc(-c2cccc(OC(=O)NC3CCCCC3)c2)c1 [URB-597]
- analgesic efficacy in rat formalin test [3]: analgesic efficacy
- analgesic efficacy in rat hot plate test (thermal nociception [2]; rat, Kathuria 2003): analgesic efficacy
- efficacy in zero plus maze model of anxiety (anxiety): efficacy

Compound: Cc1nc(-c2ccccc2)c(-c2ccccc2)n1CCCCCCNC(=O)Oc1ccccc1F [BMS-1]
- analgesic effect in Hargraves test [4]: analgesic effect
- analgesic effect in Chung spinal nerve ligation model (neuropathic pain): analgesic effect
